Where two headings read alike, the source gives them in different places.
Experiments:
[1] = target: FLuc-C-NLuc (firefly luciferase) (Photinus pyralis, UniProt P08659, form not given/L550V); test: SDR assay, FLuc-C-NLuc; conditions: - ATP
NLuc = target: T1, NLuc (Oplophorus gracilirostris, UniProt Q9GV45, A31E/A60N/A81I/F95D/I117V/K70R/L54V/L99Q/M102K/N193R/P142E/Q151K/Q38R/Q45L/V71I/Y165I); assay type: biochemical; conditions: - ATP
T1 construct: His tag (inferred from IMAC purification); made in house; host or cells: E. coli
Procedure, shortened: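 Test compounds added to 1 nM NLuc in PBS with 0.05% IGEPAL, ± ATP. Nano-Glo reagent added and incubated 10 min before luminescence read.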

[2] = target: FLuc-C-HiBiT (firefly luciferase) (Photinus pyralis, UniProt P08659, form not given/L550V); test: SDR assay, FLuc-C-HiBiT; conditions: SDR max. response, clade S
P. pyralis FLuc = P. pyralis FLuc (Photinus pyralis, UniProt P08659); test: FLuc enzymatic luminescence assay, P. pyralis FLuc; assay type: biochemical; conditions: FLuc enzymatic assay; for IC50: read-out: IC50 or SDR50 (mM) FLuc E
Procedure, shortened: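 Runs with and without 10 µM ATP: compounds were pre-incubated with FLuc (1–10 nM, PBS pH 7.4) at ambient temperature, light-protected, for 30–60 min. Luminescence was imaged 5 min after adding 10 µM D-luciferin (final). Inhibition was scaled between DMSO neutral and no-enzyme controls.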

P. pyralis FLuc, sequence (P08659 whole entry): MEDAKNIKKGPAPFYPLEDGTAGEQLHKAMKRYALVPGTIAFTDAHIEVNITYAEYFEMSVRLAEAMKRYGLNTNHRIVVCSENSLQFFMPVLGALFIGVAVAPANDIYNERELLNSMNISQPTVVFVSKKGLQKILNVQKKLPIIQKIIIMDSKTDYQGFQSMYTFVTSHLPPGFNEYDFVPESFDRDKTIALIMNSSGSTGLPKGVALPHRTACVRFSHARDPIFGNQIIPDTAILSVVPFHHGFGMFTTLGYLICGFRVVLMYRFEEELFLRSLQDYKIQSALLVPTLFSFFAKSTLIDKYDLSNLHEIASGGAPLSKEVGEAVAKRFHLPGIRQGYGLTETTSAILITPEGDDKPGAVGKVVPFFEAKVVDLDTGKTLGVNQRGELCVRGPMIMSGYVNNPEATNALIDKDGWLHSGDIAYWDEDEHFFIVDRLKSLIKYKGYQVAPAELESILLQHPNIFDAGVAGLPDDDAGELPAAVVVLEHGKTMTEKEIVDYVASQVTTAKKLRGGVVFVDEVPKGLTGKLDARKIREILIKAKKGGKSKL
T1 sequence (Q9GV45 other isoform, or with tags, fused parts or gaps with the stated changes): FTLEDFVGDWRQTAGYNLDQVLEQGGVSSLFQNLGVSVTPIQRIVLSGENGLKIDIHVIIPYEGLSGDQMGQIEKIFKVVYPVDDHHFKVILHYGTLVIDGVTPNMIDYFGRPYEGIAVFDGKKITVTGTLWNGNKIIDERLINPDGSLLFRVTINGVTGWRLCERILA
FLuc-C-NLuc (firefly luciferase), sequence (P08659 2-550 L550V, form open): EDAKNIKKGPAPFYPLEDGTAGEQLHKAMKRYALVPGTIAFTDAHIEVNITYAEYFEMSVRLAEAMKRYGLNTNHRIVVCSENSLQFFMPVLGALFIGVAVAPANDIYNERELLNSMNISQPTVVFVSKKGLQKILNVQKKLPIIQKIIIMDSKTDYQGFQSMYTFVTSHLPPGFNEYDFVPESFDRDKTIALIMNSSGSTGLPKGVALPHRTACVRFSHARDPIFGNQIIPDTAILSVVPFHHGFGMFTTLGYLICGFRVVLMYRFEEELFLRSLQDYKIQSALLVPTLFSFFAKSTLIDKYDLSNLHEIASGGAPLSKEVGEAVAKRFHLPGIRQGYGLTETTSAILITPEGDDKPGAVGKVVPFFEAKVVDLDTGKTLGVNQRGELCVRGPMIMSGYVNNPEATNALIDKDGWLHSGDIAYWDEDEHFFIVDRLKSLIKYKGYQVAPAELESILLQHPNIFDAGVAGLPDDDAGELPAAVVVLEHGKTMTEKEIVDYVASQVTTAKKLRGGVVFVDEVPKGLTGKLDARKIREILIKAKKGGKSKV
FLuc-C-HiBiT (firefly luciferase), sequence (P08659 2-550 L550V, form open): as above

| Compound | Efficacy (%) FLuc-C-NLuc SDR (-ATP) [1] | Efficacy (%) NLuc (- ATP) (NLuc) | % Activity (max response, + ATP) [2] | % Activity (max response, - ATP) [2] | Efficacy (%) FLuc E (P. pyralis FLuc; Clade S follow-up) | pIC50 or pSDR50 FLuc E (P. pyralis FLuc; Clade S follow-up) | IC50 (P. pyralis FLuc; Clade S follow-up) | pIC50 or pSDR50 FLuc E (P. pyralis FLuc) | IC50 (P. pyralis FLuc) |
| --- | --- | --- | --- | --- | --- | --- | --- | --- | --- |
| O=C(NCC1CCCCC1)C1CCN(C(=O)c2ncn3c2COC(c2ccc(Cl)cc2)C3)CC1 (stereo not shown) [NCGC00449855-01] | 0.00% | 0.00% | 16.00% | 0.00% | -13.13% |  |  |  |  |
| Cc1ccc(C2Cn3cnc(C(=O)N4CCC(C(=O)NCc5ccccc5F)CC4)c3CO2)cc1 (stereo not shown) [NCGC00449888-01] | 0.00% | 0.00% | 72.23% | 0.00% | -37.08% | 4.91 | 0.0124 mM |  |  |
| O=C(NCCCc1ccccc1)C1CCN(C(=O)c2ncn3c2COC(c2ccccc2)C3)CC1 (stereo not shown) [NCGC00449797-01] | 0.00% | 0.00% | 265.99% | 0.00% | -79.71% |  |  | 5.36 | 0.00441 mM |
| O=C(NCCC1=CCCCC1)C1CCN(C(=O)c2ncn3c2COC(c2ccccc2)C3)CC1 (stereo not shown) [NCGC00449771-01] | 0.00% | 0.00% | 338.43% | 0.00% | -97.83% |  |  | 5.56 | 0.00278 mM |
| CC(NC(=O)C1CCN(C(=O)c2ncn3c2COC(c2ccc(Cl)cc2)C3)CC1)c1ccccc1 (stereo not shown) [NCGC00449853-01] | 0.00% | 0.00% | 0.00% | 0.00% | -16.52% |  |  |  |  |
| COc1cccc(CNC(=O)C2CCN(C(=O)c3ncn4c3COC(c3ccccc3)C4)CC2)c1 (stereo not shown) [NCGC00449777-01] | 0.00% | 0.00% | 322.03% | 0.00% | -78.20% |  |  | 5.26 | 0.00555 mM |
| Cc1ccc(C2Cn3cnc(C(=O)N4CCC(C(=O)NCc5cccc(F)c5)CC4)c3CO2)cc1 (stereo not shown) [NCGC00449899-01] | 0.00% | 0.00% | 60.19% | 0.00% | -43.90% | 5.01 | 0.00988 mM |  |  |
| CC1CCC(NC(=O)C2CCN(C(=O)c3ncn4c3COC(c3ccc(Cl)cc3)C4)CC2)CC1 (stereo not shown) [NCGC00449845-01] | 0.00% | 0.00% | 0.00% | 0.00% | 0.00% |  |  |  |  |
| O=C(NCC1CCCO1)C1CCN(C(=O)c2ncn3c2COC(c2ccc(F)cc2)C3)CC1 (stereo not shown) [NCGC00449835-01] | 0.00% | 0.00% | 54.34% | 0.00% | -45.21% | 5.01 | 0.00988 mM |  |  |
| CCCCNC(=O)C1CCN(C(=O)c2ncn3c2COC(c2ccc(F)cc2)C3)CC1 (stereo not shown) [NCGC00449812-01] | 0.00% | 0.00% | 23.59% | 0.00% | -17.96% |  |  | 4.91 | 0.0124 mM |
| Cc1ccc(CNC(=O)C2CCN(C(=O)c3ncn4c3COC(c3ccccc3)C4)CC2)cc1 (stereo not shown) [NCGC00449774-01] | 0.00% | 0.00% | 316.62% | 0.00% | -84.01% |  |  | 5.01 | 0.00988 mM |
| Cc1ccc(C2Cn3cnc(C(=O)N4CCC(C(=O)NCc5cccc(Cl)c5)CC4)c3CO2)cc1 (stereo not shown) [NCGC00449892-01] | 0.00% | 0.00% | 61.41% | 14.19% | -30.33% | 4.91 | 0.0124 mM |  |  |
| O=C(NCc1ccccc1)C1CCN(C(=O)c2ncn3c2COC(c2ccc(F)cc2)C3)CC1 (stereo not shown) [NCGC00449813-01] | 0.00% | 0.00% | 33.80% | 0.00% | -31.52% |  |  | 4.91 | 0.0124 mM |
| CC1CCC(NC(=O)C2CCN(C(=O)c3ncn4c3COC(c3ccc(F)cc3)C4)CC2)CC1 (stereo not shown) [NCGC00449808-01] | 0.00% | 0.00% | 39.00% | 0.00% | -26.58% |  |  |  |  |
| O=C(NC1CCCC1)C1CCN(C(=O)c2ncn3c2COC(c2ccc(Cl)cc2)C3)CC1 (stereo not shown) [NCGC00449843-01] | 0.00% | 0.00% | 0.00% | 0.00% | -13.86% |  |  |  |  |
| O=C(NCc1cc(F)cc(F)c1)C1CCN(C(=O)c2ncn3c2COC(c2ccc(F)cc2)C3)CC1 (stereo not shown) [NCGC00449820-01] | 0.00% | 0.00% | 44.22% | 0.00% | -30.45% |  |  | 4.96 | 0.0111 mM |
| Cc1ccc(NC(=O)C2CCN(C(=O)c3ncn4c3COC(c3ccc(F)cc3)C4)CC2)c(C)c1 (stereo not shown) [NCGC00449930-01] | 0.00% | 0.00% | 67.53% | 0.00% | -45.61% | 4.96 | 0.0111 mM |  |  |
| O=C(NCc1cccc(Cl)c1)C1CCN(C(=O)c2ncn3c2COC(c2ccccc2)C3)CC1 (stereo not shown) [NCGC00449787-01] | 0.00% | -16.86% | 263.69% | 0.00% | -81.06% |  |  | 4.96 | 0.0111 mM |
| CCc1cccc(NC(=O)C2CCN(C(=O)c3ncn4c3COC(c3ccccc3)C4)CC2)c1 (stereo not shown) [NCGC00449906-01] | 0.00% | 0.00% | 357.78% | 0.00% | -98.95% | 5.76 | 0.00176 mM |  |  |
| CCc1ccc(CNC(=O)C2CCN(C(=O)c3ncn4c3COC(c3ccc(F)cc3)C4)CC2)cc1 (stereo not shown) [NCGC00449815-01] | 0.00% | 0.00% | 20.00% | 0.00% | -15.14% |  |  |  |  |
| COc1ccc(C2Cn3cnc(C(=O)N4CCC(C(=O)NC(C)C)CC4)c3CO2)cc1 (stereo not shown) [NCGC00449857-01] | 0.00% | 0.00% | 13.32% | 0.00% | -19.61% |  |  |  |  |
